Values quoted from earlier work, collected in patent US20250313903A1, “NEOANTIGEN IMMUNOTHERAPY” (Gradalis, Inc., priority 2023, published 2025).
Like-named read-outs stand apart in the source and are kept apart here.

Key:
[1] = system: locally advanced, metastatic squamous cell carcinoma
[2] = system: recurrent or metastatic cervical cancer after platinum-based chemotherapy; conditions: vs. investigator-choice chemotherapy
[3] = system: primary advanced or recurrent dMMR or MSI-H endometrial cancer; conditions: dostarlimab-gxly vs. placebo + carboplatin-paclitaxel
[4] = system: advanced/metastatic urothelial carcinoma, platinum-refractory
[5] = system: advanced renal cell cancer; conditions: in vivo
metastatic melanoma = conditions: previously untreated, wild-type BRAF (CheckMate-067 and CheckMate-069)
[6] = system: small-cell lung cancer (SCLC)
[7] = system: persistent/recurrent cervical cancer; conditions: in vivo
[8] = system: metastatic melanoma progressed after anti-CTLA-4 therapy; conditions: in vivo
[9] = system: non-small cell lung cancer (NSCLC); conditions: progressed after platinum-doublet chemotherapy
[10] = system: advanced metastatic non-small cell lung cancer (NSCLC); conditions: one patient, EGFR exon 19 deletion; ongoing greater than 1 year
[11] = system: persistent/recurrent cervical cancer; conditions: in vivo; remark: listed apart in the source
[12] = system: relapsed/refractory metastatic squamous cell cancer of head and neck; conditions: second-line
MSI-H/dMMR tumors = conditions: in vivo
[13] = system: lymph-node positive or metastatic melanoma after complete resection; conditions: adjuvant
[14] = system: recurrent or metastatic head and neck squamous cell cancer; conditions: first-line; monotherapy for CPS ≥1% or with chemotherapy
[15] = system: unresectable or metastatic, untreated melanoma; conditions: for 24-months OS / 24-months PFS: PD-L1 ≥1%; for 1-year OS / PFS (1-year PFS in Table 3): in vivo
[16] = system: unresectable/metastatic urothelial cancer; 2nd line; conditions: for median OS: vs. chemotherapy
NSCLC = conditions: irrespective of PD-L1 status
[17] = system: advanced non-colorectal dMMR tumors; conditions: in vivo
[18] = system: untreated, non-squamous NSCLC without sensitizing mutations; conditions: pembrolizumab plus chemotherapy vs. chemotherapy
[19] = system: unresectable/metastatic urothelial cancer, cisplatin-ineligible; conditions: 1st line, CPS ≥10
[20] = system: MSI-H, dMMR or TMB-H solid tumors
[21] = system: untreated, PD-L1 ≥50 advanced NSCLC; conditions: vs. chemotherapy
[22] = system: persistent/recurrent or metastatic cervical cancer with PD-L1 CPS ≥1; conditions: pembrolizumab vs. placebo + paclitaxel/platinum +/- bevacizumab
[23] = system: refractory/relapse primary mediastinal large B-cell lymphoma; conditions: in vivo
[24] = system: previously treated, PD-L1 positive, advanced NSCLC; conditions: in vivo
[25] = system: refractory classical Hodgkin's lymphoma; conditions: in vivo
[26] = in vivo
[27] = system: untreated unresectable/metastatic melanoma; conditions: combination vs. ipilimumab alone
[28] = system: unresectable, previously treated, late-stage melanoma; conditions: 3 mg/kg every 3 weeks, alone or with gp100

## Cemiplimab
[1]; Phase 1 expansion cohorts
  ORR: 50%
[1]; Phase 2 metastatic-disease cohort
  response rates: 47
[2]
  ORR: ORR: 16.4% vs. 6.3%
  median OS: Median OS: 12.0 months
  median PFS: HR: 0.75, p < 0.001

## Dostarlimab-gxly: anti-PD-1 checkpoint inhibitor
[3]
  median PFS: Median PFS: 30.3 months

## Durvalumab: PD-L1 blocking antibody
[4]; PD-L1 negative
  ORR: 0% (PD-L1 negative)
[4]; PD-L1 negative, listed as durvalumab
  ORR: none
[4]; PD-L1 positive
  ORR: patients), 46.4%
[4]; PD-L1 positive, listed as durvalumab
  ORR: 46.4%
[4]; all patients
  ORR: ORR: 31% (all
[4]; all patients, listed as durvalumab
  ORR: 31%

## Nivolumab: fully humanized IgG4 antibody targeting PD-1
[5]
  OS: 25.0 months
Metastatic melanoma
  response rate: 40%
[6]; in vivo
  24-months OS rate: 17.9%
  median OS: 4.7 months
[6]; progressed on platinum and at least one other line
  response rate: 11.6%
[7]
  ORR: ORR: 26.3%
  median OS: Median OS: 21.9 months
[8]
  response rate: 32%
[9]
  ORR: 19-20%
  median OS: 9.2-12.2 months
  median PFS: 2.3-3.5 months
[10]
  response (in words): durable partial response
[11]
  6-months OS: 6-months OS: 78%
  6-months PFS: 6-months PFS: 16%;
  median duration of SD: SD: 5.7 months
[12]
  OS: 7.5 months
MSI-H/dMMR tumors
  ORR: 31%
[13]
  12-month RFS: 70.5%

## Pembrolizumab: fully humanized IgG4 antibody targeting PD-1
[14]
  OS: 12.3 months
[15]
  24-months OS: 58%
  24-months PFS: 33%
[16]; in vivo
  OS benefit compared to chemotherapy: 3 months
[16]
  median OS: Median OS: 10.3 months
[16]; listed as pembrolizumab
  median OS: 10.3 months
NSCLC
  response rate, PFS and OS vs. chemotherapy (in words): consistent response rate, PFS and OS advantage
[17]
  ORR across tumor types: 34%
  complete response, patients: 10%
[18]
  PFS HR: (HR: 0.53; p = 0.0049)
  median PFS: Median PFS: 19.0 months
[18]; listed as pembrolizumab
  median PFS: 19 months
[19]
  ORR: ORR: 38%
[19]; listed as pembrolizumab
  ORR: 38%
[20]; 90 patients with advanced endometrial cancer
  ORR, responders/patients: 43/90
[20]; 98 patients with advanced cervical cancer
  ORR, responders/patients: 12/98
[20]; MSI-H or dMMR solid tumors
  ORR: studies: ORRs ~40%
[20]; MSI-H or dMMR solid tumors, listed as pembrolizumab
  ORR: ~40%
[20]; TMB-H patients (Keynote-158)
  ORR: 29%
[20]; TMB-low patients (Keynote-158)
  ORR: 6%
Metastatic NSCLC; PD-L1 negative tumors
  responding tumors: 15%
Metastatic NSCLC; PD-L1 positivity
  response rate: 45%
[21]
  6-months OS: 80.2% vs. 72.4%;
  ORR: ORR: 44.8% vs. 27.8%
  median PFS: Median PFS: 10.3 months
[21]; listed as pembrolizumab
  6-months OS: 80.2%
  ORR: 44.8%
  median PFS: 10.3 months
[22]
  median DOR: 18 vs. 10.4 months
  median PFS: Median PFS: 10.4 months
[23]
  complete response rate: 13%
  response rate: 45%
[24]
  OS: 10.4 months
[25]
  complete response: 22%
  median duration of response: 11 months
  response rate: 69%

## bevacizumab: VEGF inhibitor
[26]
  patients developing Grade 3/4 product related adverse events: over 65%
Ovarian cancer; BRCA-m and HRD pattern disease
  survival: 62.6 months
Ovarian cancer; patients with HRP tumors
  survival: 43.4 months

## ipilimumab: FDA approved CTLA-4 inhibitor
[27]
  median PFS: 4.4 months
[15]
  24-months OS: 45%
  24-months PFS: 13%
  1-year OS: 58.2%
  PFS (1-year PFS in Table 3): 26.5%
[15]; listed as Ipilimumab
  1-year OS: (vs. 58.2%;
  PFS (1-year PFS in Table 3): 26.5%; p < 0.001);
[28]
  OS vs. gp100 alone (in words): OS advantage
[13]
  12-month RFS: 60.8%
